*1 amine or outer side, *2 acyl side, *3 side chain or, on linkers, in order; H or OH if unused. Where a SMILES comes first, the peptide text is derived from it. Side-chain parts run from the residue outwards. [ ]: non-standard residue; d: D form. The star is where a group is joined. C20 diacid = O=C(O)CCCCCCCCCCCCCCCCCCC(=O)*; C18 diacid = O=C(O)CCCCCCCCCCCCCCCCC(=O)*; γGlu = O=C(O)[C@H](CCC(=O)[*:2])N[*:1]; αMeL = CC(C)C[C@](C)(N)C(=O)O; Orn = NCCC[C@H](N)C(=O)O; AEEA = NCCOCCOCC(=O)O; Aib = CC(C)(N)C(=O)O
Tests used:
[1] = biological target: T1, human GcgR (Homo sapiens, UniProt P47871); assay: [125I]-Glucagon binding, SPA with WGA beads, 0.1% bacitracin; conditions: geometric mean, read-out: hGcgR Ki
T1 construct: expressed in transfected cells; crude membranes
How it was run: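 SPA competition binding with WGA beads on crude membranes from HEK293 cells stably expressing hGcgR. Buffer: 25 mM HEPES pH 7.4, 2.5 mM CaCl2, 1 mM MgCl2, 0.1% bacitracin, 0.003% Tween-20; 10-point 3-fold dilutions, NSB with 1 μM Gcg.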

[2] = biological target: T2, human GIPR (Homo sapiens, UniProt P48546); assay: [125I]-GIP binding, SPA with WGA beads, 0.1% bacitracin; conditions: geometric mean, read-out: hGIPR Ki
T2 construct: expressed in transfected cells; crude membranes
T2 sequence (P48546 22-466): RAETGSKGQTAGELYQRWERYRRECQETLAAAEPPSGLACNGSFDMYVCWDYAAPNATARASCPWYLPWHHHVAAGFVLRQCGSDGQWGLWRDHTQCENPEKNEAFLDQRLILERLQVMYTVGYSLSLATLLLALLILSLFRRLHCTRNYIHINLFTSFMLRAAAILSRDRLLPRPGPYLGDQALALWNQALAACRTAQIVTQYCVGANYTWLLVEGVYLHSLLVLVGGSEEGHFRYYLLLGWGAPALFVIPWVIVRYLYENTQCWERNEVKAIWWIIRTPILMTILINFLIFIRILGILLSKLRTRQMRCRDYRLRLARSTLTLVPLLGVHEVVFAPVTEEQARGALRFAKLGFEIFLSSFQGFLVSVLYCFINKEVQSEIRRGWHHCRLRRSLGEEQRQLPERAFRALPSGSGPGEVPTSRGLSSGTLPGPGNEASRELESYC
How it was run: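 Ki values are geometric means (SEM, n independent days), derived from four-parameter nonlinear regression of IC50. Membranes came from hGIPR-expressing CHO cells.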

T1 sequence (P47871 26-477): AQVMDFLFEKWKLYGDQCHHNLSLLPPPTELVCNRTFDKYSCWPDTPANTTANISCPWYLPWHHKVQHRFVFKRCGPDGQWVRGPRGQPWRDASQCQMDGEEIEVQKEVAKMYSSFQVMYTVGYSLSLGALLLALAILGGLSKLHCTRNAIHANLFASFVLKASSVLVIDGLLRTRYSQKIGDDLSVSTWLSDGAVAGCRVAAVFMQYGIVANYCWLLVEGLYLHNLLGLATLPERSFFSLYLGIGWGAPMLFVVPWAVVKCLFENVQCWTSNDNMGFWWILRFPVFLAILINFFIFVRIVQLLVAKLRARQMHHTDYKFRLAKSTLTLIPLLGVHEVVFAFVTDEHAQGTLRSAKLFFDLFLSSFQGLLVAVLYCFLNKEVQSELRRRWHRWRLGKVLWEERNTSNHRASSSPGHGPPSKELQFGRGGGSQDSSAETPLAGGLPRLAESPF

CC[C@H](C)[C@H](NC(=O)[C@H](CO)NC(=O)[C@H](Cc1ccc(O)cc1)NC(=O)[C@H](CC(=O)O)NC(=O)[C@H](CO)NC(=O)[C@@H](NC(=O)[C@H](Cc1ccccc1)NC(=O)[C@@H](NC(=O)CNC(=O)[C@H](CCC(=O)O)NC(=O)[C@@H](C)NC(=O)[C@@H](N)Cc1ccc(O)cc1)[C@@H](C)O)[C@@H](C)CC)C(=O)N[C@@H](CC(C)C)C(=O)N[C@@H](CC(C)C)C(=O)N[C@@H](CC(=O)O)C(=O)N[C@@H](CCCCN)C(=O)N[C@@H](CCCCNC(=O)COCCOCCNC(=O)COCCOCCNC(=O)CC[C@H](NC(=O)CCCCCCCCCCCCCCCCCCC(=O)O)C(=O)O)C(=O)N[C@@H](Cc1c[nH]cn1)C(=O)N[C@@H](CCC(N)=O)C(=O)N[C@@H](CCC(N)=O)C(=O)N[C@@H](CC(=O)O)C(=O)N[C@@H](Cc1ccccc1)C(=O)N[C@H](C(=O)N[C@@H](CC(N)=O)C(=O)N[C@@H](Cc1ccc(O)cc1)C(=O)N[C@@H](CC(C)C)C(=O)N[C@@H](CC(C)C)C(=O)N[C@@H](C)C(=O)N[C@@H](CCC(N)=O)C(=O)NCC(=O)N1CCC[C@H]1C(=O)N[C@@H](CO)C(=O)N[C@@H](CO)C(=O)NCC(=O)N[C@@H](C)C(=O)N1CCC[C@H]1C(=O)N1CCC[C@H]1C(=O)N1CCC[C@H]1C(=O)N[C@@H](CO)C(N)=O)C(C)C [Example 15] (H-Y[dA]EGTFISDYSILLDKK([AEEA-AEEA-γGlu-C20 diacid])HQQDFVNYLLAQGPSSGAPPPS-NH2)
Ki [1]: > 254 nM
Ki [2]: 0.471 nM

CC[C@H](C)[C@H](NC(=O)[C@H](CCCN)NC(=O)[C@H](CC(=O)O)NC(=O)[C@H](CC(C)C)NC(=O)[C@](C)(CC(C)C)NC(=O)[C@@H](NC(=O)[C@H](CO)NC(=O)[C@H](Cc1ccc(O)cc1)NC(=O)[C@H](CC(=O)O)NC(=O)[C@H](CO)NC(=O)[C@@H](NC(=O)[C@H](Cc1ccccc1)NC(=O)[C@@H](NC(=O)CNC(=O)[C@H](CCC(=O)O)NC(=O)C(C)(C)NC(=O)[C@@H](N)Cc1ccc(O)cc1)[C@@H](C)O)[C@@H](C)CC)[C@@H](C)CC)C(=O)N[C@@H](Cc1c[nH]cn1)C(=O)N[C@@H](CCC(N)=O)C(=O)NC(C)(C)C(=O)N[C@@H](CC(=O)O)C(=O)N[C@@H](Cc1ccccc1)C(=O)N[C@H](C(=O)N[C@@H](CCC(=O)O)C(=O)N[C@@H](Cc1ccc(O)cc1)C(=O)N[C@@H](CCCCNC(=O)COCCOCCNC(=O)COCCOCCNC(=O)CC[C@H](NC(=O)CCCCCCCCCCCCCCCCC(=O)O)C(=O)O)C(=O)N[C@@H](CC(C)C)C(=O)N[C@@H](CCC(=O)O)C(=O)NCC(=O)NCC(=O)N1CCC[C@H]1C(=O)N[C@@H](CO)C(=O)N[C@@H](CO)C(=O)NCC(=O)N[C@@H](C)C(=O)N1CCC[C@H]1C(=O)N1CCC[C@H]1C(=O)N1CCC[C@H]1C(=O)N[C@@H](CO)C(N)=O)C(C)C [Example 103] (H-Y[Aib]EGTFISDYSI[αMeL]LD[Orn]IHQ[Aib]DFVEYK([AEEA-AEEA-γGlu-C18 diacid])LEGGPSSGAPPPS-NH2)
Ki [1]: > 960 nM
Ki [2]: 0.0405 nM
